# From patent publication US20060057092A1, “Cosmetic use of a composition including an ascorbic acid compound and polyamide particles” (L'OREAL, priority 2004, published 2006)
# System: immortalized human sebocytes resulting from the SZ95 line
# Experiment: Lipogenesis in cultured immortalized human sebocytes (Nile Red fluorescence, neutral lipids)
# Format: cell-based
# Conditions: for Inhibition of lipogenesis: Effectiveness (% with respect to the control): 0.0004% in culture medium, 2 days of treatment, neutral lipids
# Description: Various ascorbic acid compounds were tested on a model of cultured immortalized human sebocytes resulting from the SZ95 line described in Zouboulis, C. C., Seltmann, H., Neitzel, H. and Orfanos, C. E., Establishment and Characterization of an Immortalized Human Sebaceous Gland Cell Line, J. Invest. Dermatol., 113, 1011-1020 (1999).
# These compounds were composed of L-ascorbic acid 2-O-α-D-glucopyranoside (hereinafter ascorbyl glucoside), of ascorbic acid, of ascorbyl palmitate and of magnesium ascorbyl phosphate.
# The test consisted in measuring the amount of lipids produced by the sebocytes of the line (at confluence) in the presence or absence of active agents diluted in the culture medium. After 2 days of treatment, the adherent cells are treated with Nile Red (1 μg/ml). The content of lipids is subsequently quantified by measuring the fluorescence of the dye (two excitation/emission pairs: 485-540 nm for the neutral lipids and 540-620 nm for the nonneutral lipids). The results are given for the neutral lipids (components of the sebum).
# The experiment is carried out in octuplicate (tested and control products) in a 96-well plate.
Compound,Inhibition of lipogenesis: Effectiveness (% with respect to the control),further results
"O=C1O[C@H]([C@@H](O)CO)C(O)=C1O [Ascorbic acid, ascorbic acid]",ns,
"O=C1O[C@H]([C@@H](O)CO)C(O)=C1O[C@H]1O[C@H](CO)[C@@H](O)[C@H](O)[C@H]1O [Ascorbyl glucoside, L-ascorbic acid 2-O-α-D-glucopyranoside]",,effective concentration for reducing lipogenesis relative to ascorbic acid (comparable level of inhibition) (SZ95 sebocytes): ten times lower
"CCCCCCCCCCCCCCCC(=O)OC[C@H](O)[C@H]1OC(=O)C(O)=C1O [Ascorbyl palmitate, ascorbyl palmitate]",,effect on lipogenesis (in words) (SZ95 sebocytes): stimulating (and not inhibiting) effect
"O=C1O[C@H]([C@@H](O)CO)C([O-])=C1OP(=O)([O-])[O-].O=C1O[C@H]([C@@H](O)CO)C([O-])=C1OP(=O)([O-])[O-].[Mg+2].[Mg+2].[Mg+2] [Magnesium ascorbyl phosphate, magnesium ascorbyl phosphate]",ns,
